Read-outs that look alike come from different tables or passages of the source. Bridge positions count the residues as written; N and C are the ends. Peptide text beside a SMILES is read from it.
Key:
[1] = system: Acinetobacter baumannii AB5075; settings: for AB5075 MIC FBS: 100% fetal bovine serum; for AB5075 MIC MH: Mueller-Hinton
[2] = system: Single-donor human red blood cells; test: Hemolysis assay; type: cell-based; settings: hemolysis at 128 µg/ml
Outline: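 Peptides at 300 μg/ml (SySA library) or 128 μg/ml (SySA-5 optimization library) were incubated in triplicate with washed single-donor RBCs (1 × 10^9 cells/ml) for 3 h at 37 °C. Supernatant A540 was background-normalized to PBS and expressed relative to 1% Triton X-100 (100% hemolysis).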

[3] = system: gram-positive and gram-negative pathogens, including colistin-resistant strains; test: MIC against pathogen panel (tables S4 and S5, not shown); type: cell-based
Description: MICs were performed by a modifiedClinical and Laboratory Standards Institute) procedure. Stock peptides were diluted to 2.56 mg/ml in 50 μl of 0.01% acetic acid containing 0.2% bovine serum albumin. Peptide was then serially diluted twofold in this solution, and 10 μl of each dilution was added to a polypropylene 96-well plate (Corning, ref. no. 3879) in triplicate. Separately, E. coli W3110 or A. baumannii AB5075 was grown overnight in 5 ml of standard MH at 37°C. Cells from these cultures were diluted to a concentration of 5 × 10^5 to 6 × 10^5 cells/ml in either standard MH, MHII, RPMI, or fetal bovine serum, and 90 μl was added to each well of the 96-well plate containing diluted peptide. Plates were wrapped twice in parafilm and incubated at 37°C for 18 to 24 hours. Wells were examined by eye against wells with no bacteria for signs of growth. MICs were reported as the minimum concentration with no observable growth. In cases where triplicate samples differed, the concentration supported by the median of the three replicates was reported.
A. baumannii 17978 Lab Stock
A. baumannii 17978 R2 Lab Stock
V. cholerae C6706 Lab Stock
P. aeruginosa ATCC 27853 ATCC
K. pneumonia ATCC 1705 ATCC
S. aureus USA100 Lab Stock
Excel spreadsheet with chemically synthesized peptide properties and biochemical data.
Excel spreadsheet with all SynCH SLAY data analysis and potency score predictions

CC(C)C[C@@H]1NC(=O)[C@H](CCCNC(=N)N)NC(=O)[C@H](C(C)C)NC(=O)[C@H](CCCCN)NC(=O)[C@@H]2CSSC[C@H](NC(=O)[C@H](CCCNC(=N)N)NC(=O)[C@H](CC(C)C)NC(=O)[C@H](CCCNC(=N)N)NC(=O)[C@H](C(C)C)NC(=O)[C@H](CCCNC(=N)N)NC(=O)[C@@H](N)CSSC[C@@H](C(=O)O)NC(=O)[C@H](CCCNC(=N)N)NC1=O)C(=O)N[C@@H](CCCNC(=N)N)C(=O)N[C@@H](CCCNC(=N)N)C(=O)N[C@@H](CCCNC(=N)N)C(=O)N[C@@H](CCCNC(=N)N)C(=O)N2 [SySA-5.17] (H-CRVRLRCRRRRCKVRLRC-OH; disulfide 1-18, 7-12 (inferred); N-terminus and C-terminus assumed)
AB5075 MIC FBS ([1]; median of triplicate): 32 µg/mL
AB5075 MIC FBS ([1]; replicate 1): 32 µg/mL
AB5075 MIC FBS ([1]; replicate 2): 32 µg/mL
AB5075 MIC FBS ([1]; replicate 3): 32 µg/mL
AB5075 MIC MH ([1]; replicate 1): 4 µg/mL
AB5075 MIC MH ([1]; replicate 2): 4 µg/mL
AB5075 MIC MH ([1]; replicate 3): 4 µg/mL
fold less hemolytic (toxicity) than Protegrin-1 [2]: over 10 fold
Fold Change Hemolysis ([2]; fold change relative to SySA-5): 2.4
fold less hemolytic (toxicity) than Protegrin-1 ([2]; listed as SySA 5.17): greater than ten-fold
spectrum of activity [3]: broad-spectrum activity
